Literature values as cited in patent US12448600B2, “Extraction of antimethanogenic compounds” (priority 2023, dated 2025).
Where two headings read alike, the source gives them in different places.

Tests used:
[1] = pure form
[2] = 20° C., cell prints mmHg under a kPa head

For `O=[N+]([O-])OCCCO` [3-NOP, 3-nitrooxypropanol], the “Reduction in CH4 production” value (CH4 production; cows, twice daily dosing, 80 mg per kg dry matter intake, 3 hours post-administration) is listed as 29%, the “Reduction in methane emissions” value (CH4 production; single dose) is listed as < 30% and the “Time the reduction in methane emissions is maintained” value (CH4 production; single dose) is listed as 3 to 4 h.

In the case of `ClC(Cl)Br` [Bromodichloromethane], the Vapor pressure ([1]; 20° C.) is given as 6.6 kPa.

For `BrC(Br)Br` [Bromoform], the Vapor pressure ([1]; 20° C.) is listed as 0.67 kPa.

In the case of `ClC(Cl)Cl` [Chloroform], the Vapor pressure [1, 2] is listed as 212 mmHg.

In the case of `BrCBr` [Dibromomethane], the Vapor pressure ([1]; 20° C.) is listed as 4.7 kPa.

In the case of `FC(F)F` [Fluoroform], the Vapor pressure ([1]; 20° C.) is listed as 4000 kPa.

For `IC(I)I` [Iodoform], the Vapor pressure [1, 2] is listed as 0.04 mmHg.

For `CBr` [Methyl bromide], the Vapor pressure [1, 2] is listed as 1893 mmHg.

For `CF` [Methyl fluoride], the Vapor pressure ([1]; at 21° C.) is given as 3300 at 21 °C kPa.

For `CI` [Methyl iodide], the Vapor pressure ([1]; 20° C.) is listed as 50 kPa.

In the case of `ClC=C(Cl)Cl` [Trichlorethylene], the Vapor pressure ([1]; 20° C.) is listed as 7.8 kPa.
